In patent publication US10357537B2, “Cyclotides as immunosuppressive agents” (priority 2011, dated 2019):
Marks after values point to notes of the source that are not given here.

How the values were obtained:
[1] = tested on: activated human primary PBMC; assay: Flow cytometric forward-side-scatter analysis of viability and proliferation; assay type: cell-based; conditions: extract 50-100 μg/mL; CPT 30 μg/mL
Procedure: After completion of the chemical analysis, different concentrations of the crude O. affinis cyclotide extract were tested for its anti-proliferative capacity on activated human primary PBMC (FIG. 2).

[2] = tested on: activated human primary PBMC; conditions: kalata B1 1.8-14 μM; CPT 30 μg/mL; melittin up to 1.6 μM
Procedure: (§1) After cultivation, the cells were assessed in bioassays as described in the text.
The levels of apoptosis were determined using the annexin V-FITC apoptosis detection kit (eBioscience, Frankfurt, Germany) according to the manufacturer's instructions. After annexin V staining, propidium iodide solution (PI; eBioscience) was added and the cells were incubated in the dark, followed by a flow cytometric analysis to determine the amount of apoptosis and necrosis. CPT (30 μg/mL) and Triton-X 100 (0.5%) was used as positive controls for apoptosis and necrosis, respectively.
Cellular apoptotic and necrotic hallmarks were measured by using inter-nucleosomal DNA fragmentation (subG1^+ cells) assay and phosphatidylserine surface analysis through a single and combinatory annexin V and propidium iodide staining. This double staining process allowed the discrimination between viable (annexin^−/PI^−), apoptotic (annexin^+/PI^− and annexin^+/PI^+) or necrotic (annexin^−/PI^+) cells.

[3] = tested on: activated human primary PBMC; assay: Anti-proliferative CFSE cell division assay on anti-CD3/CD28-activated PBMC; conditions: PBMCs, anti-CD3/28 mAbs, 72 h, cyclotides 1.8-14 μM; n.a. = not active
Procedure: Human peripheral blood mononuclear cells (PBMC) were isolated from the blood of healthy adult donors obtained from the Blood Transfusion Centre (University Medical Center, Freiburg, Germany). Venous blood was centrifuged on a LymphoPrep™ gradient (density: 1.077 g/cm^3, 20 min, 500×g, 20° C.; Progen, Heidelberg, Germany). Afterwards cells were washed twice with medium and cell viability and concentration was determined using the trypan blue exclusion test. PBMC were cultured in RPMI 1640 medium supplemented with 10% heat-inactivated fetal calf serum (PAA, Coelbe, Germany), 2 mM L-glutamine, 100 U/mL penicillin and […] (all from Invitrogen, Karlsruhe, Germany). The cells were cultured at 37° C. in a humidified incubator with a 5% CO2/95% air atmosphere. All experiments conducted on human material were approved by the Ethics committee of the University of Freiburg.
as §1
For cell proliferation and cell division tracking analysis PBMC were harvested and washed twice in cold PBS and resuspended in PBS at a concentration of 5×10^6 cells/mL. Cells were incubated for 10 min at 37° C. with carboxyfluorescein diacetate succinimidyl ester (CFSE; 5 μM: Sigma-Aldrich, Taufkirchen, Germany). The staining reaction was stopped by washing twice with complete medium. Afterwards, the cell division progress was analysed using flow cytometric analysis.
The anti-proliferative effect of cyclotide mutants/variants was tested according to Example 5. […] Afterwards the cell proliferation was assessed by analysing cell division using flow cytometric-based histogram analysis.

[4] = tested on: nematodes; assay: Relative nematocidal activity (other assays, Table 2); assay type: in vivo; conditions: some cells print two values separated by a slash
[5] = Relative insecticidal activity (other assays, Table 2); conditions: in vivo
[6] = tested on: IL-2 surface receptor CD25 on PBMC; assay: IL-2 surface receptor CD25 expression, FACS; assay type: cell-based, human; conditions: cyclotides 4 μM, CsA 5 μg/mL, PHA-L; stimulated untreated PBMCs = 100%
Procedure: PBMCs were isolated from blood samples of healthy adults that were provided by the transfusion center of the university hospital in Freiburg (Germany). […] The lymphocyte-enriched layer was transferred into a new vessel and washed three times with PBS and centrifuged again (10 min, twice with 300×g and last time with 800 rpm, 20° C.). For the following experiments, the cells were either stained with CFSE or diluted with medium to 4*10^6 cells/ml. Cells were counted in alight microscope using trypan blue staining and a hemocytometer.
(§2) Following purification, PBMCs were equilibrated for 2 h at 37° C. […] This was followed by washing of each well with 100 μl PBS (centrifugation for 5 min, 1000 rpm, 20° C.) and re-suspending the cells in 100 μl medium for further assays.
Activated cells were transferred into a 96-well plate, centrifuged (5 min, 1000 rpm, 20° C.), washed one time with 100 μl FACS-buffer and stained with CD25 PE for 15 min at 4° C. Then cells were washed twice with FCS-buffer and resuspended in 100 μl FACS-buffer, transferred into FACS vials with a total volume of 250 μl and the expression of IL2 surface receptor CD25 was measured by FACS analysis using a FACSCalibur instrument (BD Biosciences).
Amongst other pathways, T-cell proliferation is determined by binding of the cytokine IL-2 to its cell surface receptor. Therefore the influence of cyclotides on the expression of the IL-2 receptor was tested. […] As control substance CsA was used. […] Treatment with V10A yields 114%±12.5, V10K yields 112%±16.3 and T8K yields 114%±17.3 CD25 surface expression after 24 h as compared to the control (FIG. 11B).

[7] = tested on: PHA-L-stimulated PBMC; assay: Proliferation of PHA-L-stimulated CFSE-labelled PBMC with or without exogenous IL-2; assay type: cell-based, human; conditions: cyclotides 4 μM, CsA 5 μg/mL, 3 day culture; for proliferation with exogenous IL-2: IL-2 10 U/mL
Procedure: FIG. 13. Proliferation capacity of cyclotide-treated PBMC in the presence of exogenous IL-2. […] The cells were cultured without exogenous IL-2 (10 U/mL) (A and B) or in the presence of IL-2 (C and D). The CFSE-labelled cells were measured after a 3 day culture period by flow cytometry and representative data are presented in dot plots (A and C). Data are presented as mean and standard deviation (SD) of three independent experiments.
as §2
Purified PBMCs (5*10^6 cells/ml) were incubated with […] of the fluorescent dye CFSE (5-carbofluoreszenein-ciacetat-succinylester) for 10 min at 37° C. The reaction was stopped using medium, cells were washed one time with medium by centrifugation (10 min, 300×g, 20° C.) and diluted with medium to 4*10^6 cells/ml.

[8] = tested on: IFN-gamma production of activated PBMCs; assay: IFN-gamma secretion of PBMC, ELISA-based FACS; assay type: cell-based, human; conditions: 36 h past stimulation
Procedure: FIG. 14. IFN-γ secretion by cyclotide-treated PBMC. […] Untreated cells were used as control. Following 24 h or 36 h of cultivation, the cells were restimulated with PMA/Ionomycin for further 6 hour. The amount of IFN-γ was measured in the supernatant of cultured cells using an ELISA-based flow cytometric method. The data are presented as mean and standard deviation (SD) of three independent experiments.
Activated cells were resuspended in 50 μl of medium, transferred into a 96-well plate and treated with 10 μg/ml PHA-L. After incubation for 24 h cells were re-stimulated with PMA (50 ng/ml) und ionomycin (500 ng/ml) for 6 h. Next, the cells were transferred into Eppendorf tubes, centrifuged (5 min, 3000 RPM, 20° C.) und 50 μl of the supernatant was again transferred into new tubes and stored at −20° C. Production of cytokines was measured and quantified using the FlowCytomix™ kit according to manufacturer's instructions.
Therefore it is of interest to determine whether cyclotides only have anti-proliferative effects or also affect the effector function of T-lymphocytes, which would directly relate to changes in the IFN-gamma and TNF-alpha production. Therefore, the production of both cytokines of cyclotide-treated, activated PBMCs at an early time point after PBMC activation was tested.

[9] = tested on: degranulation marker LAMP-1 (CD107a) on activated PBMC; assay: CD107a degranulation analysis; assay type: cell-based, human; conditions: after 36 h; T20K 4 μM, CsA 5 μg/mL
Procedure: FIG. 16. Degranulation capacity of cyclotide-treated activated human PBMC. […] After 36 hour of cultivation the cells were restimulated with PMA/Ionomycin for 2.5 hours in the presence of a CD107a mAbs and GolgiStop reagent to determine the amount of degranulation by flow cytometry. Representative data are shown in dot plots (A) and in (B) data are presented as mean and standard deviation (SD) of three independent experiments.
Activated cells were grown for 36 h and then treated for re-stimulation with PMA (50 ng/ml) und ionomycin (500 ng/ml) and stained with CD107a PE. After 1 h the reaction was stopped with 2 μl Golgi-Stop (1:10) and incubated for 2.5 h at 37° C. The cells were transferred into a 96-well plate, centrifuged (5 min, 1000 RPM, 20° C.) and washed with 100 μl FACS-buffer. Afterwards, PBMCs were stained with CD8 PE-Cy5 for 15 min at 4° C. and following to wash cycles with FACS-buffer the cells were resuspended in 100 μl, transferred into FACS vials with a total volume of 250 μl and the degranulation was measured by FACS analysis.
After determining the influence of cyclotide treatment on the effector function of PBMCs on the basis of measuring IFN-gamma and TNF-alpha cytokine levels, it is of interest to determine an effect of cyclotides on the degranulation activity. Activation of cytotoxic CD8^+-lymphocytes lead to a release of cytolytic granules, which contain/express lysosomal-associated membrane protein 1 (CD107; LAMP-1). During degranulation, the granule vesicle membranes fuse with the membranes of activated CD8^+-lymphocytes and therefore LAMP-1 can be used as a marker protein for the cytotoxic activity of T-lymphocytes, which can be measured with FACS. After 36 h, 42%±21.4 of the CsA- and 49%±16.8 of the T20K-treated cells contain the degranulation marker LAMP-1 as compared to the control (FIG. 16). This can be interpreted in the way that CsA- and T20K-treated cells have reduced cytotoxicity.

[10] = Relative hemolytic activity (other assays, Table 2); assay type: cell-based; conditions: some values given for the Ala mutant

Compound | dead cells / harm to cells (forward-side-scatter) [1] | induction of apoptosis [2] | IC50 (μM) ± STDEV, inhibition of PBMC proliferation [3] | Relative activity in other assays (fold difference to kB1): nematocidal [4] | Relative activity in other assays (fold difference to kB1): insecticidal [5] | CD25 expression after 48 h [6] | CD25 surface expression after 24 hours [6] | proliferation with exogenous IL-2 [7] | proliferation as compared to the control cells, without exogenous IL-2 [7] | IFN-gamma production as compared to the control, 36 h [8] | cells containing the degranulation marker LAMP-1 as compared to the control [9] | Relative activity in other assays (fold difference to kB1): hemolytic [10]
CC[C@@]1(O)C(=O)OCc2c1cc1n(c2=O)Cc2cc3ccccc3nc2-1 [camptothecin, reference compound] | induced a high proportion of dead cells | significantly increased the fractions of these cells |  |  |  |  |  |  |  |  |  | 
kalata B1 mutant GLPVCGEKCVGGTCNTPGCTCSWPVCTRN (SEQ ID No. 8) [Kalata B1 T8K, Kalata T8K] |  |  | not active (n.a.)^b | <0.2 fold difference to kB1 | 0.2 fold difference to kB1 | no significant change in receptorexpression | 114%±17.3 | did not change the effect on proliferation | no effect on the proliferation | did not induce significant changes in the level of IFN-gamma | no influence on the degranulation activity | 
kalata B1 mutant GLPVCGETCAGGTCNTPGCTCSWPVCTRN (SEQ ID No. 9) [Kalata V10A] |  |  |  |  | 1.1 fold difference to kB1 | no significant change in receptorexpression | 114%±12.5 | did not change the effect on proliferation | no effect on the proliferation | did not induce significant changes in the level of IFN-gamma |  | 0.5 fold difference to kB1
